Measured values as given in patent US6964949B2, “Pharmaceutical compositions for promoting the growth of gram-positive bacilli and increasing the acidity in the vagina and the use thereof” (Shanghai Jiao Da Onlly Co., Ltd., priority 2000, dated 2005).

Columns and labels:
Assay type in all cases: cell-based
Gram-positive bacilli = assay: Experiment Example 5: influence of composition pH (10.0% maltose), specimen culture, Gram smear; details: 1.0% yeast extract, 1.6% xanthan gum
From the text: (§1) • (1)The preparation of the compositions: Maltose was used to prepare the following compositions according to the method mentioned above: • A. 10.0% maltose, 1.0% yeast extract, 1.6% xanthan gum, pH adjusted to 4.4; • B. 10.0% maltose, 1.0% yeast extract, 1.6% xanthan gum, pH adjusted to 4.8; • C. 10.0% maltose, 1.0% yeast extract, 1.6% xanthan gum, pH adjusted to 5.1; • D. 10.0% maltose, 1.0% yeast extract, 1.6% xanthan gum, pH adjusted to 5.4; • E. 10.0% maltose, 1.0% yeast extract, 1.6% xanthan gum, pH adjusted to 5.8; • F. 10.0% maltose, 1.0% yeast extract, 1.6% xanthan gum, pH adjusted to 6.4; • G. 10.0% maltose, 1.0% yeast extract, 1.6% xanthan gum, pH adjusted to 6.8; • H. 10.0% maltose, 1.0% yeast extract, 1.6% xanthan gum, pH adjusted to 7.2; • (2)The preparation of the test tubes: Compositions prepared above were filled into the test tubes, with each tube containing 5 ml, sterilized, and kept until use for experiments. • (3)Specimen suspension: Vaginal secretion was taken from one of the patients suffering from typical bacterial vaginosis with a cotton swab, then the swab was washed in 2 ml sterilized Trypcase-soy Broth immediately, and thus the specimen suspension was ready. […] Then the tubes were placed in a candle jar and cultivated at 37° C. After 24 hours and 48 hours' culture, culture samples were taken respectively from each of the tubes, then the Gram smears of the samples were observed and the pH values of culture samples were tested.

Gram-positive cocci = assay: as above; details: 1.0% yeast extract, 1.6% xanthan gum
From the text: as §1

[1] = test system: vaginal secretion specimen of a patient suffering from typical bacterial vaginosis; assay: Experiment Example 5: pH of culture samples (production of acids); details: 10.0% maltose, 1.0% yeast extract, 1.6% xanthan gum
From the text: as §1

[2] = pH of the composition 4.8, 48 hours
[3] = pH of the composition 5.1, 24 hours
[4] = pH of the composition 5.4, 24 hours
[5] = pH of the composition 5.8, 24 hours
[6] = pH of the composition 5.8, 48 hours
[7] = pH of the composition 6.4, 24 hours
[8] = pH of the composition 6.4, 48 hours
[9] = pH of the composition 6.8, 24 hours
[10] = pH of the composition 6.8, 48 hours
[11] = pH of the composition 7.2, 24 hours
[12] = pH of the composition 7.2, 48 hours

Structure (SMILES): OC[C@H]1O[C@H](O[C@H]2[C@H](O)[C@@H](O)[C@H](O)O[C@@H]2CO)[C@H](O)[C@@H](O)[C@@H]1O [Maltose, maltose]
- Bacteria G + b (Gram-positive bacilli), 48 hours culture (Gram-positive bacilli; [2]): G + b, + (1-9 bacteria per field of vision under oil-immersion lens)
- Bacteria G + b (Gram-positive bacilli), 24 hours culture (Gram-positive bacilli; [3]): G + b, + (1-9 bacteria per field of vision under oil-immersion lens)
- Bacteria G + b (Gram-positive bacilli), 24 hours culture (Gram-positive bacilli; [4]): G + b, +++ (About 100 bacteria or more per field vision under oil-immersion lens, even uncountable)
- Bacteria G + b (Gram-positive bacilli), 24 hours culture (Gram-positive bacilli; [5]): G + b, ++ (About 10-99 bacteria per field of vision under oil-immersion lens)
- Bacteria G + b (Gram-positive bacilli), 48 hours culture (Gram-positive bacilli; [6]): G + b, +++ (About 100 bacteria or more per field vision under oil-immersion lens, even uncountable)
- Bacteria G + b (Gram-positive bacilli), 24 hours culture (Gram-positive bacilli; [7]): G + b, + (1-9 bacteria per field of vision under oil-immersion lens)
- Bacteria G + b (Gram-positive bacilli), 48 hours culture (Gram-positive bacilli; [8]): G + b, +++ (About 100 bacteria or more per field vision under oil-immersion lens, even uncountable)
- Bacteria G + b (Gram-positive bacilli), 24 hours culture (Gram-positive bacilli; [9]): G + b, ++ (About 10-99 bacteria per field of vision under oil-immersion lens)
- Bacteria G + b (Gram-positive bacilli), 48 hours culture (Gram-positive bacilli; [10]): G + b, +++ (About 100 bacteria or more per field vision under oil-immersion lens, even uncountable)
- Bacteria G + b (Gram-positive bacilli), 24 hours culture (Gram-positive bacilli; [11]): G + b, ++ (About 10-99 bacteria per field of vision under oil-immersion lens)
- Bacteria G + b (Gram-positive bacilli), 48 hours culture (Gram-positive bacilli; [12]): G + b, +++ (About 100 bacteria or more per field vision under oil-immersion lens, even uncountable)
- Bacteria G + c (Gram-positive cocci), 24 hours culture (Gram-positive cocci; pH of the composition 4.4, 24 hours): G + c, − (No or less than one bacterium per field of version under oil-immersion lens)
- Bacteria G + c (Gram-positive cocci), 48 hours culture (Gram-positive cocci; pH of the composition 4.4, 48 hours): G + c, − (No or less than one bacterium per field of version under oil-immersion lens)
- Bacteria G + c (Gram-positive cocci), 24 hours culture (Gram-positive cocci; pH of the composition 4.8, 24 hours): G + c, + (1-9 bacteria per field of vision under oil-immersion lens)
- Bacteria G + c (Gram-positive cocci), 48 hours culture (Gram-positive cocci; [2]): G + c, + (1-9 bacteria per field of vision under oil-immersion lens)
- Bacteria G + c (Gram-positive cocci), 24 hours culture (Gram-positive cocci; [3]): G + c, + (1-9 bacteria per field of vision under oil-immersion lens)
- Bacteria G + c (Gram-positive cocci), 48 hours culture (Gram-positive cocci; pH of the composition 5.1, 48 hours): G + c, ++ (About 10-99 bacteria per field of vision under oil-immersion lens)
- Bacteria G + c (Gram-positive cocci), 24 hours culture (Gram-positive cocci; [4]): G + c, + (1-9 bacteria per field of vision under oil-immersion lens)
- Bacteria G + c (Gram-positive cocci), 48 hours culture (Gram-positive cocci; pH of the composition 5.4, 48 hours): G + c, − (No or less than one bacterium per field of version under oil-immersion lens)
- Bacteria G + c (Gram-positive cocci), 24 hours culture (Gram-positive cocci; [5]): G + c, + (1-9 bacteria per field of vision under oil-immersion lens)
- Bacteria G + c (Gram-positive cocci), 48 hours culture (Gram-positive cocci; [6]): G + c, + (1-9 bacteria per field of vision under oil-immersion lens)
- Bacteria G + c (Gram-positive cocci), 24 hours culture (Gram-positive cocci; [7]): G + c, + (1-9 bacteria per field of vision under oil-immersion lens)
- Bacteria G + c (Gram-positive cocci), 48 hours culture (Gram-positive cocci; [8]): G + c, + (1-9 bacteria per field of vision under oil-immersion lens)
- Bacteria G + c (Gram-positive cocci), 24 hours culture (Gram-positive cocci; [9]): G + c, − (No or less than one bacterium per field of version under oil-immersion lens)
- Bacteria G + c (Gram-positive cocci), 48 hours culture (Gram-positive cocci; [10]): G + c, + (1-9 bacteria per field of vision under oil-immersion lens)
- Bacteria G + c (Gram-positive cocci), 24 hours culture (Gram-positive cocci; [11]): G + c, − (No or less than one bacterium per field of version under oil-immersion lens)
- Bacteria G + c (Gram-positive cocci), 48 hours culture (Gram-positive cocci; [12]): G + c, − (No or less than one bacterium per field of version under oil-immersion lens)
- pH, 24 hours culture ([1]; pH of the composition 4.4): 4.4
- pH, 48 hours culture ([1]; pH of the composition 4.4): 4.4
- pH, 24 hours culture ([1]; pH of the composition 4.8): 4.8
- pH, 48 hours culture ([1]; pH of the composition 4.8): 4.4-4.8
- pH, 24 hours culture ([1]; pH of the composition 5.1): 4.6
- pH, 48 hours culture ([1]; pH of the composition 5.1): 4.4-4.6
- pH, 24 hours culture ([1]; pH of the composition 5.4): 5.4
- pH, 48 hours culture ([1]; pH of the composition 5.4): 4.1-4.4
- pH, 24 hours culture ([1]; pH of the composition 5.8): 4.8
- pH, 48 hours culture ([1]; pH of the composition 5.8): 4.1
- pH, 24 hours culture ([1]; pH of the composition 6.4): 4.4
- pH, 48 hours culture ([1]; pH of the composition 6.4): 4.1
- pH, 24 hours culture ([1]; pH of the composition 6.8): 5.4
- pH, 48 hours culture ([1]; pH of the composition 6.8): 4.4
- pH, 24 hours culture ([1]; pH of the composition 7.2): 5.4
- pH, 48 hours culture ([1]; pH of the composition 7.2): 4.1
